What is called EC50 is the concentration needed to bring the measured effect to its halfway point.

Common to all, as to type: cell-based
For assay [1], the system named is Dendritic cells + T cells + CD3/CD28 beads. The experiment in a line: CRS assay: Cell Titer Glo compound cytotoxicity. The settings on record: Homo sapiens, luminescence of the remaining culture, read-out: Cell Titer Glo 2 EC50. The source says:
(§1) Human PBMC cells (PPA Research Group, Cat No. 15-00021); RPMI media 10% FBS; GMCSF (Peprotech, Cat No. 300-03) and IL4 (Peprotech Cat No. 200-04); White clear bottom 96 well plates (Fisher, Cat No. 07-200-587, Corning #3903); Human IL-2 DuoSet ELISA (R&D Systems, Cat No. DY202); Human IL-6 DuoSet ELISA (R&D Systems, Cat No. DY206); Cell Titer Glo reagent (Promega, Cat No. G7573); Dynabeads Human T-Activator CD3/CD28 (Fisher, Cat No. 111.61D); Anti-human CD3 (BD Biosciences, Cat No. 555336); CD28, Clone CD28.2 (Beckman Coulter Inc. Cat No. IM1376); Recombinant Human IL-2 Protein (R&D Systems, Cat No. 202-IL-500).
After 4 days, the dendritic cells were harvested by spinning down (1000 rpm/10 min) and aspirating the media. After resuspending the cells in fresh RPMI media (10% FBS), the cells were plated (25K/well in 50 μl) onto a white clear bottom 96 well plate. […] of RPMI media containing 2× concentrated test compound was added per well to the above cell-culture media (final concentration becomes 1×) and the plates were pre-incubated for 1 hour at 37° C. […]
(§2) After incubation, 80 μl of the supernatant was harvested from each well for IL6 ELISA and 80 μl of the supernatant for IL2 ELISA. […] The plate was read for luminescence intensity to determine the compound cytotoxicity.
In general terms: Cellular ATP, detected with luciferase, serves as a proxy for viable cell number.

Assay [2] shares this test system. Briefly: CRS assay: dendritic cells + T cells + CD3/CD28 beads, IL6 ELISA. The settings on record: human PBMC-derived dendritic cells, 1 hour compound pre-incubation, overnight with T cells and CD3/CD28 beads; IL-6 primarily produced by the dendritic cells. For orientation: ELISA stands for enzyme-linked immunosorbent assay.
For assay [3] the test system is unchanged. Briefly: CRS assay: dendritic cells + T cells + CD3/CD28 beads, IL2 ELISA. The settings on record: Homo sapiens; same culture; IL-2 only produced by the activated T cells.
Excerpt: as §1
Human peripheral blood mononuclear cells (PBMC) (400 million) obtained from the vendor were transferred into three T-175 flasks containing 16 ml RPMI media (10% fetal bovine serum (FBS)) and incubated for 2 hours at 37° C. After 2 hours, floating PBL was removed and the cell was rinsed twice with 10 ml of media. The PBL and media was saved for T cell expansion. 16 ml of fresh RPMI media (10% FBS) containing Granulocyte Macrophage Colony—Stimulating Factor (GMCSF) (100 ng/ml) and IL4 (20 ng/ml) was added and the flask was kept in a 37° C. incubator. […]
as §2

The structures appear in SMILES notation.

On to `COc1cc(Nc2ncc(C)c(Nc3ccc4oc(=O)[nH]c4c3)n2)cc(C)c1F` [Compound I-432, 5-(2-(4-fluoro-3-methoxy-5-methylphenylamino)-5-methylpyrimidin-4-ylamino)benzo[d]oxazol-2(3H)-one], for which the figures for the EC50 in assay [1], in assay [2] and in assay [3] were 4.55 µM, 0.052 µM and 4.41 µM, respectively.
The like results for `CCO[C@H]1CC[C@H](n2cc(NC(=O)c3csc(-c4cn[nH]c4)n3)c(-c3nc(F)ccc3F)n2)CC1` [VI-176, N-(3-(3,6-difluoropyridin-2-yl)-1-((1r,4r)-4-ethoxycyclohexyl)-1H-pyrazol-4-yl)-2-(1H-pyrazol-4-yl)thiazole-4-carboxamide] were, in that order, 12 µM, 0.195 µM and 6.9 µM.
